Reference: US8598146B2, “Methods for identifying modulators of protein kinase C-epsilon (PKCε) and method of treatment of aberrant glucose metabolism associated therewith” (Garvan Institute of Medical Research, priority 2003, dated 2013)

Assays:
pancreatic islets = experiment: glucose-stimulated insulin secretion from pancreatic islets with carbamylcholine (FIG. 13); format: cell-based, mouse; conditions: 0.1 mM carbamylcholine with 20 mM glucose; islets from wild type and PKCε−/− mice
pancreatic beta cells = conditions: 100 nM glyburide in the presence of 20 mM glucose; cited from earlier work

Compound | glucose-stimulated insulin secretion (pancreatic islets) | insulin secretion (pancreatic beta cells)
C[N+](C)(C)CCOC(N)=O.[Cl-] [carbamylcholine] | potentiation | –
COc1ccc(Cl)cc1C(=O)NCCc1ccc(S(=O)(=O)NC(=O)NC2CCCCC2)cc1 [glyburide] | – | enhances insulin secretion
